Test results reported in patent publication US12145915B1 (priority 2023, dated 2024).
In brackets after ≈: the same amount, converted by molar mass.

How the values were obtained:
[1] = system: Mycobacterium tuberculosis H37Rv (ATCC: 25177); assay: Resazurin Microplate Assay (REMA), MIC against H37Rv strain; format: cell-based; conditions: 192 h, read-out: Anti-tubercular activity against Mycobacterium tuberculosis (μg/mL) H37Rv (MIC)

SMILES | MIC [1] [µg/mL] | melting point [°C]
Cc1nc(-c2ccc(OCC(C)C)c(C#N)c2)sc1C(=O)N/N=C/c1ccc(F)c(Oc2ccccc2)c1 [KNV-TZL1, (E)-2-(3-Cyano-4-isobutoxyphenyl)-N-(4-fluoro-3-phenoxybenzylidene)-4-methylthiazole-5-carbohydrazide] | 8 (≈ 15.1 µM) | 138 to 140
COc1cc(/C=N/NC(=O)c2sc(-c3ccc(OCC(C)C)c(C#N)c3)nc2C)ccc1O [KNV-TZL2, (E)-2-(3-Cyano-4-isobutoxyphenyl)-N-(4-hydroxy-3-methoxybenzylidene)-4-methylthiazole-5-carbohydrazide] | 16 (≈ 34.4 µM) | 230 to 232
Cc1nc(-c2ccc(OCC(C)C)c(C#N)c2)sc1C(=O)N/N=C/c1ccc([N+](=O)[O-])o1 | – | 228 to 230
